The source of these data is article PMC5974162, “Characterization of Ferredoxin-Dependent Biliverdin Reductase PCYA1 Reveals the Dual Function in Retrograde Bilin Biosynthesis and Interaction With Light-Dependent Protochlorophyllide Oxidoreductase LPOR in Chlamydomonas reinhardtii” (Frontiers in Plant Science, 2018).

This assay has as its target T1, DtenPHY1 (Dolichomastix tenuilepis, UniProt A0A097CKJ3).
T1 construct: gene PHY; Twin-Strep-tag kept; expressed in Chlamydomonas CC400 cytosol, also in E. coli LMG194/pPL-PCB as control
As to the kind of experiment: zinc-dependent fluorescence of SDS-PAGE blot. The note with it: covalent; in vitro assembly with added PCB, TES pH 8.0, room temperature, ~2 h, dark; also without added PCB. Type of assay: binding.

T1 sequence (A0A097CKJ3 entry or part of it): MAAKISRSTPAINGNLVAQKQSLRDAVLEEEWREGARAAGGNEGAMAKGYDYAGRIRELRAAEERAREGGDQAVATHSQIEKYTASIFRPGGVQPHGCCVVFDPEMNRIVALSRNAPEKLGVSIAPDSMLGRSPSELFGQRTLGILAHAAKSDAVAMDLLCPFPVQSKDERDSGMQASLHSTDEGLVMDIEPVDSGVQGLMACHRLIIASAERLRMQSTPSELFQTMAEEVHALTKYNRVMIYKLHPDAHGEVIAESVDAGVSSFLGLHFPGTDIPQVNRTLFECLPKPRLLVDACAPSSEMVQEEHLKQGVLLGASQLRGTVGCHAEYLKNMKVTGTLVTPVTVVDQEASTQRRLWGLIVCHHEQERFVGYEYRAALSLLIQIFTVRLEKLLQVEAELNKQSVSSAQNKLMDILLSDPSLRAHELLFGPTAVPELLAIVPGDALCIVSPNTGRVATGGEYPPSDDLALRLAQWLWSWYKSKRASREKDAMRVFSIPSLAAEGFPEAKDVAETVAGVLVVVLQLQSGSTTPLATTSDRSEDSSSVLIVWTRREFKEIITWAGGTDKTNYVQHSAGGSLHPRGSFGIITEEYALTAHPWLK

For `CC=C1C(=Cc2[nH]c(C=C3N=C(C=C4NC(=O)C(CC)=C4C)C(C)=C3CCC(=O)O)c(CCC(=O)O)c2C)NC(=O)C1C` (stereo not shown) [PCB, phycocyanobilin], the “zinc-dependent fluorescence of SDS-PAGE blot” value is “DtenPHY1 purified from Chlamydomonas CC400 covalently binds phycocyanobilin (PCB)”.
